This note sets out measurements from patent publication US9527867B2, “Antibacterial biaromatic derivatives” (Actelion Pharmaceuticals Ltd., priority 2013, dated 2016).

Molecules are shown by their SMILES. ≈ marks a conversion by molar mass, not a printed value.

What all share (test): Bacterial growth minimal inhibitory concentration (broth microdilution, CLSI M7-A7)
Type in all cases: cell-based
(Dilution methods test growth across graded concentrations, often in twofold steps.)

Experiment [1] relates to Enterococcus faecium A949. Conditions: Enterococcus faecium, A949, cation-adjusted Mueller-Hinton Broth, multiply-resistant strain (in particular quinolone-resistant), read-out: MIC for E. faecium A949. Put shortly:
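Broth microdilution after CLSI M7-A7 in cation-adjusted Mueller-Hinton medium gave MIC values in mg/L.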

The subject of experiment [2] is Acinetobacter baumannii T6474. The settings on record: Acinetobacter baumannii, T6474, cation-adjusted Mueller-Hinton Broth, multiply-resistant strain (in particular quinolone-resistant). Put shortly: (§1)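 MICs (mg/L) by broth microdilution in cation-adjusted Mueller-Hinton Broth per CLSI M7-A7. A798 and T6474 are multiply resistant (quinolone-resistant) strains; A894 is quinolone-sensitive; ATCC29213 is methicillin- and quinolone-sensitive.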

Experiment [3] relates to Moraxella catarrhalis A894. Conditions: Moraxella catarrhalis, A894, cation-adjusted Mueller-Hinton Broth, quinolone-sensitive strain. A digest of the protocol: as §1
In experiment [4] the test system is Staphylococcus aureus A798. The settings on record: Staphylococcus aureus, A798, cation-adjusted Mueller-Hinton Broth, multiply-resistant strain (in particular quinolone-resistant), read-out: MIC for S. aureus A798. Put shortly: as §1
The test system of experiment [5] is Staphylococcus aureus ATCC29213. Conditions: Staphylococcus aureus, ATCC29213, cation-adjusted Mueller-Hinton Broth, methicillin-sensitive and quinolone-sensitive strain, read-out: MIC for S. aureus ATCC29213. Put shortly:
as §1

Usually MIC stands for the lowest concentration that inhibits growth of the organism.

Take `N#CC1(COc2cccc(-c3cccc(CNCC[C@H]4CN(c5ccc6c(n5)NC(=O)CO6)C(=O)O4)c3)c2)CCC1` [Example 71, 1-[3′-({2-[(S)-2-oxo-3-(3-oxo-3,4-dihydro-2H-pyrido[3,2-b][1,4]oxazin-6-yl)-oxazolidin-5-yl]-ethylamino}-methyl)-biphenyl-3-yloxymethyl]-cyclobutanecarbonitrile]: the minimal inhibitory concentration (MIC) is 8 µg/mL (≈ 14.5 µM) in experiment [1]; over 8 µg/mL in experiment [2]; 0.25 µg/mL (≈ 0.452 µM) in experiment [3]; 1 µg/mL (≈ 1.81 µM) in experiment [4]; 1 µg/mL (≈ 1.81 µM) in experiment [5].
`COc1cccc(-c2cncc(CNCC[C@@H]3CN(c4ccc5c(c4)NC(=O)CS5)C(=O)O3)c2)c1` [Example 72, 6-[(R)-5-(2-{[5-(3-methoxy-phenyl)-pyridin-3-ylmethyl]-amino}-ethyl)-2-oxo-oxazolidin-3-yl]-4H-benzo[1,4]thiazin-3-one]: the MIC in experiment [1] worked out at 4 µg/mL (≈ 8.15 µM); in experiment [2] it was 1 µg/mL (≈ 2.04 µM); in experiment [3] it was 0.063 µg/mL (≈ 0.128 µM); in experiment [4], 1 µg/mL (≈ 2.04 µM); in experiment [5], 0.5 µg/mL (≈ 1.02 µM).
On to `N#Cc1ncccc1-c1cccc(CNCC[C@H]2CN(c3ccc4c(n3)NC(=O)CO4)C(=O)O2)c1` [Example 73, 3-[3-({2-[(S)-2-oxo-3-(3-oxo-3,4-dihydro-2H-pyrido[3,2-b][1,4]oxazin-6-yl)-oxazolidin-5-yl]-ethylamino}-methyl)-phenyl]-pyridine-2-carbonitrile], for which the MIC was 16 µg/mL (≈ 34 µM) in experiment [1]; 1 µg/mL (≈ 2.13 µM) in experiment [2]; at most 0.063 µg/mL in experiment [3]; 2 µg/mL (≈ 4.25 µM) in experiment [4]; 0.5 µg/mL (≈ 1.06 µM) in experiment [5].
In the case of `COc1cccc(-c2cccc(CNCCc3nn(-c4ccc5c(n4)NC(=O)CO5)c(=O)o3)c2O)n1` [Example 74, 6-(5-{2-[2-hydroxy-3-(6-methoxy-pyridin-2-yl)-benzylamino]-ethyl}-2-oxo-[1,3,4]oxadiazol-3-yl)-4H-pyrido[3,2-b][1,4]oxazin-3-one], the MIC is 0.5 µg/mL (≈ 1.02 µM) in experiment [1]; 0.25 µg/mL (≈ 0.51 µM) in experiment [2]; at most 0.016 µg/mL in experiment [3]; 0.063 µg/mL (≈ 0.128 µM) in experiment [4]; 0.125 µg/mL (≈ 0.255 µM) in experiment [5].
For `COc1cc(-c2cccc(CNCC[C@H]3CN(c4ccc5c(n4)NC(=O)CO5)C(=O)O3)c2)ccc1C#N` [Example 75, 3-methoxy-3′-({2-[(S)-2-oxo-3-(3-oxo-3,4-dihydro-2H-pyrido[3,2-b][1,4]oxazin-6-yl)-oxazolidin-5-yl]-ethylamino}-methyl)-biphenyl-4-carbonitrile] the same measures were 8 µg/mL (≈ 16 µM), 1 µg/mL (≈ 2 µM), at most 0.063 µg/mL, 0.5 µg/mL (≈ 1 µM) and 0.5 µg/mL (≈ 1 µM).
Turning to `COc1ccc(C#N)cc1-c1cccc(CNCC[C@H]2CN(c3ccc4c(n3)NC(=O)CO4)C(=O)O2)c1` [Example 76, 6-methoxy-3′-({2-[(S)-2-oxo-3-(3-oxo-3,4-dihydro-2H-pyrido[3,2-b][1,4]oxazin-6-yl)-oxazolidin-5-yl]-ethylamino}-methyl)-biphenyl-3-carbonitrile], the MIC in experiment [1] is 8 µg/mL (≈ 16 µM); in experiment [2], 2 µg/mL (≈ 4 µM); in experiment [3], at most 0.063 µg/mL; in experiment [4], 1 µg/mL (≈ 2 µM); in experiment [5], 0.5 µg/mL (≈ 1 µM).
For `COC(=O)c1cccc(-c2cccc(CNCC[C@H]3CN(c4ccc5c(n4)NC(=O)CO5)C(=O)O3)c2)c1` [Example 77, 3′-({2-[(S)-2-oxo-3-(3-oxo-3,4-dihydro-2H-pyrido[3,2-b][1,4]oxazin-6-yl)-oxazolidin-5-yl]-ethylamino}-methyl)-biphenyl-3-carboxylic acid methyl ester], the MIC is 4 µg/mL (≈ 7.96 µM) in experiment [1]; 2 µg/mL (≈ 3.98 µM) in experiment [2]; at most 0.063 µg/mL in experiment [3]; 0.25 µg/mL (≈ 0.497 µM) in experiment [4]; 0.5 µg/mL (≈ 0.995 µM) in experiment [5].
